What was measured:
Assay in all cases: microbe, parasite or virus in culture
Type in all cases: cell-based
[1] = tested on: influenza A virus minigenome (PB2, PB1, PA, NP; luciferase reporter) in 293T cells, RNP_Alaska; conditions: HEK-293T, 48 h
[2] = tested on: influenza A virus minigenome (PB2, PB1, PA, NP; luciferase reporter) in 293T cells, RNP_CAL; conditions: HEK-293T, 48 h, read-out: RNP_CAL_EC50
[3] = tested on: influenza A virus minigenome (PB2, PB1, PA, NP; luciferase reporter) in 293T cells, RNP_Hubei; conditions: HEK-293T, 48 h

Measured: EC50

COC(=O)Oc1c2n(ncc1=O)[C@@H]([C@H](c1cccc(F)c1)c1cccc(F)c1F)[C@H]1CCCN1C2=O [Example 115, (9aR,10S)-10-((R)-(2,3-difluorophenyl)(3-fluorophenyl)methyl)-3,5-dioxo-3,5,8,9,9a,10-hexahydro-7H-pyrrolo[1′,2′:4,5]pyrazino[1,2-b]pyridazin-4-yl methyl carbonate]
< 100 nM: all assays above

Cc1oc(=O)oc1COc1c2n(ncc1=O)[C@@H]([C@H](c1cccc(F)c1)c1cccc(F)c1F)[C@H]1CCCN1C2=O [Example 116, (9aR,10S)-10-((R)-(2,3-difluorophenyl)(3-fluorophenyl)methyl)-4-((5-methyl-2-oxo-1,3-dioxol-4-yl)methoxy)-8,9,9a,10-tetrahydro-7H-pyrrolo[1′,2′:4,5]pyrazino[1,2-b]pyridazine-3,5-dione]
< 100 nM: all assays above
